Results from US20250326771A1, “PIPERAZINE DERIVATIVES USEFUL IN HIV THERAPY” (VIIV HEALTHCARE COMPANY, priority 2022, published 2025).

Experiments:
[1] = biological target: cIAP2-BIR3 (Homo sapiens (Human), UniProt Q13489); test: BIR binding assay (FRET competition), cIAP2 BIR3; conditions: for cIAP2 BIR3 vs BIR2 separation window: fold separation (FS) for cIAP2
[2] = system: Jurkat HIV-luciferase clones; test: Jurkat latency reversal assay; assay type: cell-based; conditions: Homo sapiens, 48 h; Jurkat latency reversal assay potency; read-out: Jurkat pEC50 (converted)
Summary of the method: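 Pooled Jurkat clones C16, 115 and N6, each carrying one or two integrated HIV-luciferase proviruses and kept in 500 nM EFV, were exposed to 3-fold, 14-point compound titrations in duplicate (10 μM top, 0.5% DMSO) for 48 h at 37° C. Luciferase luminescence was fitted by four-parameter logistic regression for EC50 and maximal percent activation versus vehicle.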

[3] = biological target: cIAP1-BIR2 (Homo sapiens (Human), UniProt Q13490); test: BIR binding assay (FRET competition), cIAP1 BIR2
Summary of the method: (§1)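 Each domain is run separately at its own level: 50 nM cIAP1-BIR3, 100 nM XIAP-BIR3, 325 nM for cIAP1-BIR2 or cIAP2-BIR2. Probe is a 200 nM fluorescent SMAC peptide, and the value is IC50 from FRET competition.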

[4] = biological target: cIAP1-BIR3 (Homo sapiens (Human), UniProt Q13490); test: BIR binding assay (FRET competition), cIAP1 BIR3; conditions: for cIAP1 BIR3 vs BIR2 separation window: fold separation (FS) for cIAP1
Summary of the method: as §1

[5] = biological target: XIAP-BIR3 (Homo sapiens (Human), UniProt P98170); test: BIR binding assay (FRET competition), XIAP BIR3
Summary of the method: as §1

[6] = biological target: cIAP2-BIR2 (Homo sapiens (Human), UniProt Q13489); test: BIR binding assay (FRET competition), cIAP2 BIR2
Summary of the method: as §1

XIAP-BIR3, sequence (P98170 241-356): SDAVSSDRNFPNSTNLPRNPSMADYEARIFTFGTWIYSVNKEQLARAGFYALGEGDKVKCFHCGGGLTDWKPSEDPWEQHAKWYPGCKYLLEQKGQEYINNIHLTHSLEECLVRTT
cIAP2-BIR2, sequence (Q13489 158-242): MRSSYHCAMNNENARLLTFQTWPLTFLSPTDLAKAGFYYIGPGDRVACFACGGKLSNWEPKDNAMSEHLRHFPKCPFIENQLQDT
cIAP2-BIR3, sequence (Q13489 238-349): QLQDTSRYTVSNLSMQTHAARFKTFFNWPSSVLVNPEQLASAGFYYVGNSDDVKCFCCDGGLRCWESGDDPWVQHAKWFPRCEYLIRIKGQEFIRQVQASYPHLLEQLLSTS
cIAP1-BIR2, sequence (Q13490 173-257): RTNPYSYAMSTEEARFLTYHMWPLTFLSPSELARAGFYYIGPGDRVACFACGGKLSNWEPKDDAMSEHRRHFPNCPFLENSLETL
cIAP1-BIR3, sequence (Q13490 253-363): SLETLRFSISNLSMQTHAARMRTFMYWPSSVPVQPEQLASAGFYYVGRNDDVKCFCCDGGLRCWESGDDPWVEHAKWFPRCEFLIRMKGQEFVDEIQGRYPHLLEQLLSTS

SMILES | IC50 [1] | cIAP2 BIR3 vs BIR2 separation window [1] | EC50 [2] | IC50 [3] | IC50 [4] | cIAP1 BIR3 vs BIR2 separation window [4] | IC50 [5] | IC50 [6] | cIAP2 BIR3 (pIC50) ([1]; FRET competition) | cIAP1 BIR2 (pIC50) ([3]; FRET competition) | cIAP1 BIR3 (pIC50) ([4]; FRET competition) | XIAP BIR3 (pIC50) ([5]; FRET competition) | cIAP2 BIR2 (pIC50) ([6]; FRET competition)
C[C@@H]1CN(CC(=O)N2CC(C)(C)c3[nH]c(=O)c(Cc4ccc(Br)cc4)cc32)[C@@H](CN2CCO[C@H](C(=O)NCc3ccc(CNC(=O)[C@@H]4CN(C[C@H]5CN[C@H](C)CN5CC(=O)N5CC(C)(C)c6[nH]c(=O)c(Cc7ccc(Br)cc7)cc65)CCO4)cc3)C2)CN1 [Compound 162, (2S,2′S)-N,N′-(1,4-phenylenebis(methylene)) bis(4-(((2R,5R)-1-(2-(6-(4-bromobenzyl)-3,3-dimethyl-5-oxo-2,3,4,5-tetrahydro-1H-pyrrolo[3,2-b]pyridin-1-yl)-2-oxoethyl)-5-methylpiperazin-2-yl)methyl)morpholine-2-carboxamide)] | 0.00138 to 0.00794 µM | +++ (10,000>FS>1,000) | 0.0126 to 0.0631 µM | 0.0224 to 1 µM | 0.00138 to 0.00794 µM | ++ (1,000>FS>100) | 0.0158 to 0.0316 µM | 0.0224 to 1 µM |  |  |  |  | 
C[C@@H]1CN(CC(=O)N2CC(C)(C)c3[nH]c(=O)c(Cc4ccc(F)cc4)cc32)[C@@H](CN2CCO[C@H](COCCCCCCOC[C@@H]3CN(C[C@H]4CN[C@H](C)CN4CC(=O)N4CC(C)(C)c5[nH]c(=O)c(Cc6ccc(F)cc6)cc54)CCO3)C2)CN1 [Example 64, 1,1′-(2,2′-((3R,3′R,6R,6′R)-(((2S,2'S)-((hexane-1,6-diylbis(oxy))bis(methylene))bis(morpholine-2,4-diyl))bis(methylene))bis(3-methylpiperazine-6,1-diyl))bis(acetyl))bis(6-(4-fluorobenzyl)-3,3-dimethyl-1,2,3,4-tetrahydro-5H-pyrrolo[3,2-b]pyridin-5-one)] | 0.00138 to 0.00794 µM |  | 0.00049 to 0.0126 µM | 10 to 51.3 µM | 0.00794 to 0.0158 µM |  | 0.00794 to 0.0158 µM | 10 to 51.3 µM |  |  |  |  | 
C[C@@H]1CN(CC(=O)N2CC(C)(C)c3[nH]c(=O)c(Cc4cc(F)c(F)c(F)c4F)cc32)[C@@H](CN2CCO[C@H](C(=O)NCc3ccc(CNC(=O)[C@@H]4CN(C[C@H]5CN[C@H](C)CN5CC(=O)N5CC(C)(C)c6[nH]c(=O)c(Cc7cc(F)c(F)c(F)c7F)cc65)CCO4)cc3)C2)CN1 [Compound 174, (2S,2′S)-N,N′-(1,4-phenylenebis(methylene)) bis(4-(((2R,5R)-1-(2-(3,3-dimethyl-5-oxo-6-(2,3,4,5-tetrafluorobenzyl)-2,3,4,5-tetrahydro-1H-pyrrolo[3,2-b]pyridin-1-yl)-2-oxoethyl)-5-methylpiperazin-2-yl)methyl)morpholine-2-carboxamide)] |  | +++ (10,000>FS>1,000) | 0.00049 to 0.0126 µM |  |  | +++ (10,000>FS>1,000) |  |  | +++ (8.10>pIC50>=7.80) | ++ (5.00<pIC50<=5.50) | +++ (8.10>pIC50>=7.80) | ++ (7.80>pIC50>=7.50) | ++ (5.00<pIC50<=5.50)
C[C@@H]1CN(CC(=O)N2CC(C)(C)c3[nH]c(=O)c(Cc4ccc(F)cc4)cc32)[C@@H](CN2CCN(CCCCCCCCCCN3CCN(C[C@H]4CN[C@H](C)CN4CC(=O)N4CC(C)(C)c5[nH]c(=O)c(Cc6ccc(F)cc6)cc54)[C@H](C)C3)C[C@H]2C)CN1 [Example 25, 1,1′-(2,2′-((3R,3′R,6R,6′R)-(((2R,2′R)-decane-1,10-diylbis(2-methylpiperazine-4,1-diyl))bis(methylene))bis(3-methylpiperazine-6,1-diyl))bis(acetyl))bis(6-(4-fluorobenzyl)-3,3-dimethyl-1,2,3,4-tetrahydro-5H-pyrrolo[3,2-b]pyridin-5-one)] | 0.00138 to 0.00794 µM | +++ (10,000>FS>1,000) | 0.0126 to 0.0631 µM | 0.0224 to 1 µM | 0.00794 to 0.0158 µM | ++ (1,000>FS>100) | 0.00794 to 0.0158 µM | 0.0224 to 1 µM |  |  |  |  | 
C[C@@H]1CN(CC(=O)N2CC(C)(C)c3[nH]c(=O)c(Cc4ccc(F)cc4)cc32)[C@@H](CN2CCC[C@H](NC(=O)CCCCCCCCCCCCC(=O)N[C@H]3CCCN(C[C@H]4CN[C@H](C)CN4CC(=O)N4CC(C)(C)c5[nH]c(=O)c(Cc6ccc(F)cc6)cc54)C3)C2)CN1 [Example 40, N^1,N^14-bis((S)-1-(((2R,5R)-1-(2-(6-(4-fluorobenzyl)-3,3-dimethyl-5-oxo-2,3,4,5-tetrahydro-1H-pyrrolo[3,2-b]pyridin-1-yl)-2-oxoethyl)-5-methylpiperazin-2-yl)methyl)piperidin-3-yl)tetradecanediamide] | 0.0158 to 0.0316 µM | +++ (10,000>FS>1,000) | 0.0631 to 0.316 µM | 10 to 51.3 µM | 0.0158 to 0.0316 µM | +++ (10,000>FS>1,000) | 0.0316 to 0.501 µM | 10 to 51.3 µM |  |  |  |  | 
C[C@@H]1CN(CC(=O)N2CC(C)(C)c3[nH]c(=O)c(Cc4ccc(F)cc4)cc32)[C@@H](CN2CCN(C(=O)/C=C/c3ccc(/C=C/C(=O)N4CCN(C[C@H]5CN[C@H](C)CN5CC(=O)N5CC(C)(C)c6[nH]c(=O)c(Cc7ccc(F)cc7)cc65)[C@H](C)C4)cc3)C[C@H]2C)CN1 [Example 14, 1,1′-(2,2′-((3R,3′R,6R,6′R)-(((2R,2′R)-((2E,2′E)-3,3′-(1,4-phenylene)bis(acryloyl))bis(2-methylpiperazine-4,1-diyl))bis(methylene))bis(3-methylpiperazine-6,1-diyl))bis(acetyl))bis(6-(4-fluorobenzyl)-3,3-dimethyl-1,2,3,4-tetrahydro-5H-pyrrolo[3,2-b]pyridin-5-one)] | 0.0158 to 0.0316 µM | ++ (1,000>FS>100) | 0.0631 to 0.316 µM | 0.0224 to 1 µM | 0.0158 to 0.0316 µM | ++ (1,000>FS>100) | 0.0158 to 0.0316 µM | 0.0224 to 1 µM |  |  |  |  | 
C[C@@H]1CN(CC(=O)N2CC(C)(C)c3[nH]c(=O)c(Cc4ccc(F)cc4)cc32)[C@@H](CN2CCO[C@H](COc3ccccc3-c3ccccc3OC[C@@H]3CN(C[C@H]4CN[C@H](C)CN4CC(=O)N4CC(C)(C)c5[nH]c(=O)c(Cc6ccc(F)cc6)cc54)CCO3)C2)CN1 [Example 67, 1,1′-(2,2′-((3R,3′R,6R,6′R)-(((2S,2'S)—(([1,1′-biphenyl]-2,2′-diylbis(oxy))bis(methylene))bis(morpholine-2,4-diyl))bis(methylene))bis(3-methylpiperazine-6,1-diyl))bis(acetyl))bis(6-(4-fluorobenzyl)-3,3-dimethyl-1,2,3,4-tetrahydro-5H-pyrrolo[3,2-b]pyridin-5-one)] | 0.00794 to 0.0158 µM |  | 0.00049 to 0.0126 µM | 1 to 3.16 µM | 0.00794 to 0.0158 µM |  | 0.00794 to 0.0158 µM | 3.16 to 10 µM |  |  |  |  | 
C[C@@H]1CN(CC(=O)N2CC(C)(C)c3[nH]c(=O)c(Cc4ccc(F)cc4)cc32)[C@@H](CN2CCO[C@H](COc3ccc(F)c(OC[C@@H]4CN(C[C@H]5CN[C@H](C)CN5CC(=O)N5CC(C)(C)c6[nH]c(=O)c(Cc7ccc(F)cc7)cc65)CCO4)c3F)C2)CN1 [Example 74, 1,1′-(2,2′-((3R,3′R,6R,6′R)-(((2S,2'S)-(((2,4-difluoro-1,3-phenylene)bis(oxy))bis(methylene))bis(morpholine-2,4-diyl))bis(methylene))bis(3-methylpiperazine-6,1-diyl))bis(acetyl))bis(6-(4-fluorobenzyl)-3,3-dimethyl-1,2,3,4-tetrahydro-5H-pyrrolo[3,2-b]pyridin-5-one)] | 0.00138 to 0.00794 µM | +++ (10,000>FS>1,000) | 0.00049 to 0.0126 µM | 1 to 3.16 µM | 0.00138 to 0.00794 µM | +++ (10,000>FS>1,000) | 0.00138 to 0.00794 µM | 1 to 3.16 µM |  |  |  |  | 
C[C@@H]1CN(CC(=O)N2CC(C)(C)c3[nH]c(=O)c(Cc4ccc(Cl)cc4C#N)cc32)[C@@H](CN2CCO[C@H](C(=O)NCc3ccc(CNC(=O)[C@@H]4CN(C[C@H]5CN[C@H](C)CN5CC(=O)N5CC(C)(C)c6[nH]c(=O)c(Cc7ccc(Cl)cc7C#N)cc65)CCO4)cc3)C2)CN1 [Compound 171, (2S,2′S)-N,N′-(1,4-phenylenebis(methylene)) bis(4-(((2R,5R)-1-(2-(6-(4-chloro-2-cyanobenzyl)-3,3-dimethyl-5-oxo-2,3,4,5-tetrahydro-1H-pyrrolo[3,2-b]pyridin-1-yl)-2-oxoethyl)-5-methylpiperazin-2-yl)methyl)morpholine-2-carboxamide)] | 0.00138 to 0.00794 µM | ++ (1,000>FS>100) | 0.0126 to 0.0631 µM | 0.0224 to 1 µM | 0.00138 to 0.00794 µM | ++ (1,000>FS>100) | 0.0316 to 0.501 µM | 0.0224 to 1 µM |  |  |  |  | 
